Drawing on PMC9205682 (Biochimica et biophysica acta. Biomembranes, 2021), this text covers Kd for one molecule.

This experiment addresses Mycobacterial membrane protein large 3 (Mmpl3) (Mycolicibacterium smegmatis, UniProt A0QP27). Briefly: MicroScale Thermophoresis. In kind it is binding. (MST reads how a fluorescent partner responds to local heating, with and without ligand.)

Chain of Mycobacterial membrane protein large 3 (Mmpl3) (A0QP27 whole entry): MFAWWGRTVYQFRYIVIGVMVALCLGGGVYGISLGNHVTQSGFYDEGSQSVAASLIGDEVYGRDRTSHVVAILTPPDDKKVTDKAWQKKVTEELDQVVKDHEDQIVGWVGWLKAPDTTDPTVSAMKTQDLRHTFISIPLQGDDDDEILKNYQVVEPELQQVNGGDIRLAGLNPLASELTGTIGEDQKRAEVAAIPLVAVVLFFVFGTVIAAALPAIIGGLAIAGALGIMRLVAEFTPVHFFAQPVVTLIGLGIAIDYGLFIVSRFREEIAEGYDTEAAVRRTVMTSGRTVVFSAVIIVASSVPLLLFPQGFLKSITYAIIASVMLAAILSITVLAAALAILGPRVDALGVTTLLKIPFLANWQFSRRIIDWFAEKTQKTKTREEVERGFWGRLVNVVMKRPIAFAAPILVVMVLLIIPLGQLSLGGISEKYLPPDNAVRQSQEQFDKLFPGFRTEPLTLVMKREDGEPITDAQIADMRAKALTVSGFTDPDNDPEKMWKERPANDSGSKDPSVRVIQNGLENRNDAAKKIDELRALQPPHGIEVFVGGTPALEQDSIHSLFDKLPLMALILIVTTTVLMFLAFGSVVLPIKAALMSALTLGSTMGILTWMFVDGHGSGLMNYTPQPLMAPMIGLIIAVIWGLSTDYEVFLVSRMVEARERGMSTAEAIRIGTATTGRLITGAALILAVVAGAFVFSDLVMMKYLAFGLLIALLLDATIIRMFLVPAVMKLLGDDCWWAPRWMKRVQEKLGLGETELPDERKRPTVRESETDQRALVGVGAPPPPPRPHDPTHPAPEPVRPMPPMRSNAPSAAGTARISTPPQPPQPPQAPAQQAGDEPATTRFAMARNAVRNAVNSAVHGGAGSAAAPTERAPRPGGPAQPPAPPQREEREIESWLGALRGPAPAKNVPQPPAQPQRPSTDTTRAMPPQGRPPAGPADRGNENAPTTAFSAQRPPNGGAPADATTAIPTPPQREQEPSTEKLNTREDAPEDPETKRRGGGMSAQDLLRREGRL

As to `CC(C)=CCC/C(C)=C/CNCCNC1C2CC3CC(C2)CC1C3` (stereo not shown) [SQ109], binding was put at a Kd of 1.56 µM.
